# In patent publication US6426343B1, “Preparation and use of a specific GABA-Aα5 receptor ligand for treatment of Alzheimer's disease” (Merck Sharp & Dohme Ltd., priority 1995, dated 2002):
# Key:
# [1] = target: α5 subtype containing GABA-A receptors (Rattus norvegicus, UniProt P18508+P19969); assay: In vivo [3H]FG 8094 binding after pellet implantation; conditions: SC pellet, after first four swim trials, [3H]FG 8094 IV
# Experimental: In a second experiment the vehicle or FG pellets were implanted into rats exactly as described above. However, after the first four swim trials the animals were injected (IV) with [^3H]FG 8094 and three mins later the brains of the animals were rapidly removed.
# GABAA receptors = assay: In vivo [3H]Ro 15-1788 binding in whole mouse brain
# Experimental: (§1) The in vivo binding of [^3H]Ro 15-1788 to mouse brain was performed essentially as described by Goeders and Kuhar (1985). Male Swiss-Webster mice received a 0.9% NaCl solution containing 50 mCi/kg of [^3H]Ro 15-1788 (0.05 ml/10 g of body weight) via the tail vein. […] Each mouse brain was then rapidly removed, homogenised in 5.0 ml of 50 mM Tris HCl, 5.0 mM EDTA, pH 7.4 at 4° C. using an ultra-turrax homogeniser for 10 s at setting 5. In a separate series of experiments different brain regions, selected for their preferential expression of particular GABA subtypes were also examined. Binding of [^3H]Ro 15-1788 to cerebellum is almost exclusively α1-like (Quirk et al, 1994), whereas binding to spinal cord is indicative of binding to receptors containing α2 or α3-subtypes, α1, α4 and α5 are rare or absent in this region (Wisden et al, 1992). Brains were rapidly dissected into forebrain and cerebellum and the spinal cord was also removed. […] Volumes ([…]) of homogenate were filtered rapidly through GF/B filters, washed with 2×5.0 ml volumes of ice-cold buffer and the residual radioactivity was counted by liquid scintillation spectroscopy.
# [2] = Blood levels after subcutaneous pellet implantation; conditions: 1.5 mg in hydroxy propylmethylcellulose pellet, rats
# Forebrain (all α) = assay: In vivo [3H]Ro 15-1788 binding, forebrain; design: species or system mouse; conditions: 30 min, mean±SEM, relative to vehicle
# Experimental: as §1, with “spectroscopy. […]” for “spectroscopy.”
# α2β2γ2 = target: T1, α2β2γ2 (Homo sapiens, UniProt P18507+P47869); assay: Two electrode voltage-clamp, modulation of GABA EC20 current in Xenopus oocytes; format: cell-based; conditions: 1 μM
# T1 construct: expressed in transfected cells; host or cells: Xenopus oocytes, nuclear injection of cDNAs in pCDM8
# T1 sequence (P47869 29-451): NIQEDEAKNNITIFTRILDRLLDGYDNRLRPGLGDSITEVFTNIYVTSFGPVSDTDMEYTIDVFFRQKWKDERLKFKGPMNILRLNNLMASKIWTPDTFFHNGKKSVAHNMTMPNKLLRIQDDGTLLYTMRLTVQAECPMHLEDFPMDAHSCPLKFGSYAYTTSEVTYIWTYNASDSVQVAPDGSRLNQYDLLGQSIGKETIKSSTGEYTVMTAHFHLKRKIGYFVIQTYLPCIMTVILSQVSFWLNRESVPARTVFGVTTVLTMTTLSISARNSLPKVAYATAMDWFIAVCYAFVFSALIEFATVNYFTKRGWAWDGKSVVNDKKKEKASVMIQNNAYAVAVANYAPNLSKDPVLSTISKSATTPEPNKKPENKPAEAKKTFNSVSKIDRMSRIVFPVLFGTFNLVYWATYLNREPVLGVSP
# T1 sequence (P47870 25-512 partner limits assumed): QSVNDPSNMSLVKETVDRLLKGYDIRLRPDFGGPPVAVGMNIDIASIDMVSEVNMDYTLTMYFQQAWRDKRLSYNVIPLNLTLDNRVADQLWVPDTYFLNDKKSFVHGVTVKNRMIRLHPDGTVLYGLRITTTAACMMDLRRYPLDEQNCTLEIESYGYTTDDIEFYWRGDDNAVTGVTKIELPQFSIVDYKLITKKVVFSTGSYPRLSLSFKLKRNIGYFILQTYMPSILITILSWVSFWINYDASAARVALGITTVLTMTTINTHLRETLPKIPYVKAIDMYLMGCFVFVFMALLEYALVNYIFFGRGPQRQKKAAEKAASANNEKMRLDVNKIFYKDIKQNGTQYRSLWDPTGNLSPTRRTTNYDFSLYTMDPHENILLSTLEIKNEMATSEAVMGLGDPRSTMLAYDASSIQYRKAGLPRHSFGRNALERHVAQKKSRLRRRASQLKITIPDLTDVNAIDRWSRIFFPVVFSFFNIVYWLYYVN
# T1 sequence (P18507 40-467 isoform P18507-1 limits assumed): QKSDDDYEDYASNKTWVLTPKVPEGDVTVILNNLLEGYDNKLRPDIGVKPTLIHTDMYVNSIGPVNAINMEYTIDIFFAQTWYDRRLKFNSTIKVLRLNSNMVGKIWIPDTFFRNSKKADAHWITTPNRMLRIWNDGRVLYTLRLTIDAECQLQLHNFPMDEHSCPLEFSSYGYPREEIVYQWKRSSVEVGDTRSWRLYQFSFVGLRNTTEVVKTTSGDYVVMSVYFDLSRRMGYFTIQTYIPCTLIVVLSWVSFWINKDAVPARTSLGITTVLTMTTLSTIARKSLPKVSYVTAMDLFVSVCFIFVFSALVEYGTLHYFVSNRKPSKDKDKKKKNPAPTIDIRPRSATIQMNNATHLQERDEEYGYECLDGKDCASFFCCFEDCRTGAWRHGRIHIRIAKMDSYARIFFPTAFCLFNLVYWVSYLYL
# Experimental: (§2) Binding studies on transfected cells containing α1β3γ2S, α2β3γ2S, and α5β3γ2S have identified compounds with α5 selectivity. These compounds were studied using electrophysiological techniques (Wafford et al, 1993) to determine their functional effects on […], α2β2γ2S, α3β2γ2S, α5β2γ2S and α6β2γ2S GABAA receptors expressed in Xenopus oocytes. Oocyte nuclei were directly injected with 10.0-20.0 nl of the relevant cDNAs (6.0 ng/μl) engineered into the expression vector pCDM8. Following incubation for 24 h, oocytes were placed in a […] and perfused with saline. By using the two electrode voltage-clamp recording method, GABA activated currents could be measured by bathing the cell in a solution containing GABA. Firstly a reproducible current response was established using a GABA concentration which gave approximately 20% of the maximal GABA response that could be elicited (EC20). […] The response could be potentiated by a BZ receptor agonist or inhibited by BZ receptor inverse agonist
# α3β2γ2 = target: T2, α3β2γ2 (Homo sapiens, UniProt P18507+P34903); assay: as above; format: cell-based; conditions: 1 μM
# T2 construct: expressed in transfected cells; host or cells: Xenopus oocytes, nuclear injection of cDNAs in pCDM8
# Experimental: as §2
# α5β2γ2 = target: T3, α5β2γ2 (Homo sapiens, UniProt P18507+P31644); assay: as above; format: cell-based; conditions: 1 μM
# T3 construct: expressed in transfected cells; host or cells: Xenopus oocytes, nuclear injection of cDNAs in pCDM8
# Experimental: as §2
# α1β2γ2 = target: T4, α1β2γ2 (Homo sapiens, UniProt P14867+P18507); assay: as above; format: cell-based; conditions: 1 μM
# T4 construct: expressed in transfected cells; host or cells: Xenopus oocytes, nuclear injection of cDNAs in pCDM8
# Experimental: as §2
# Cerebellum (α1) = Cerebellum (α1) (Mus musculus, UniProt P22723+P62812); assay: In vivo [3H]Ro 15-1788 binding, cerebellum
# Chain of Cerebellum (α1) (P62812 28-455): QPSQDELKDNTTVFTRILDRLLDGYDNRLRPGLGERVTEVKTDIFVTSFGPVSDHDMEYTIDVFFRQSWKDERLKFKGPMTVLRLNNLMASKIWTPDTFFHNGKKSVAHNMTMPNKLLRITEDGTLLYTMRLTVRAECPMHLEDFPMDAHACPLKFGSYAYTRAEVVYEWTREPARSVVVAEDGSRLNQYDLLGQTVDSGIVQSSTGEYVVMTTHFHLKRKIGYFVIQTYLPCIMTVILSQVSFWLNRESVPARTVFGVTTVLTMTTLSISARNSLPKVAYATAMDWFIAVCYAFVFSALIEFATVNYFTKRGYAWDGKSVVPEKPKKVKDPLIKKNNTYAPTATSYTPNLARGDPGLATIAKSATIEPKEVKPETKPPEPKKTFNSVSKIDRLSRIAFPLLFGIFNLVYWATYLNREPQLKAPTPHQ
# Chain of Cerebellum (α1) (P22723 39-474): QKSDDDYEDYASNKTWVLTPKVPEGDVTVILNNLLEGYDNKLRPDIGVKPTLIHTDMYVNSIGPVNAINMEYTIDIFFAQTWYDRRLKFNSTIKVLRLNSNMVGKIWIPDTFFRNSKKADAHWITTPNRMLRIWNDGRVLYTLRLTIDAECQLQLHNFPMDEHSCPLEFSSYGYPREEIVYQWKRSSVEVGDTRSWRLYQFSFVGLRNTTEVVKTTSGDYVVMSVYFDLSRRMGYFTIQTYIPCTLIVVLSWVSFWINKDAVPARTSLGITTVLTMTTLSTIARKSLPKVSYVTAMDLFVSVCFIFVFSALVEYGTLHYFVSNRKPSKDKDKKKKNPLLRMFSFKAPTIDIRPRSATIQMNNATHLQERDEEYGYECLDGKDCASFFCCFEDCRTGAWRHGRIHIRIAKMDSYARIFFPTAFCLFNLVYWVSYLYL
# Chain of Cerebellum (α1) (P63137 25-474 partner limits assumed): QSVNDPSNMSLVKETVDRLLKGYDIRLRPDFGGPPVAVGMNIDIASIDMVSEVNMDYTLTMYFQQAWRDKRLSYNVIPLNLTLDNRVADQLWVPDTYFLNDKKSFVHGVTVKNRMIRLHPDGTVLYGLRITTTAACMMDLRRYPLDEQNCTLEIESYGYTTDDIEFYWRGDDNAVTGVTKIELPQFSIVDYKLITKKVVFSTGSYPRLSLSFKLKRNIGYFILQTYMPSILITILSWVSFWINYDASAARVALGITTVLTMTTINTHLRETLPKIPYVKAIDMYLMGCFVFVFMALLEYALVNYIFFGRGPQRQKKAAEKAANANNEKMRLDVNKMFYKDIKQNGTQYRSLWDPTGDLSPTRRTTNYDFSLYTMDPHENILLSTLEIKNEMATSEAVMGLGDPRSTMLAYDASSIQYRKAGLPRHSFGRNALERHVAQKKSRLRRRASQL
# Experimental: (§3) The in vivo binding of [^3H]Ro 15-1788 to mouse brain was performed essentially as described by Goeders and Kuhar (1985). Male Swiss-Webster mice received a 0.9% NaCl solution containing 50 mCi/kg of [^3H]Ro 15-1788 (0.05 ml/10 g of body weight) via the tail vein. […] Each mouse brain was then rapidly removed, homogenised in 5.0 ml of 50 mM Tris HCl, 5.0 mM EDTA, pH 7.4 at 4° C. using an ultra-turrax homogeniser for 10 s at setting 5. In a separate series of experiments different brain regions, selected for their preferential expression of particular GABA subtypes were also examined. Binding of [^3H]Ro 15-1788 to cerebellum is almost exclusively α1-like (Quirk et al, 1994), whereas binding to spinal cord is indicative of binding to receptors containing α2 or α3-subtypes, α1, α4 and α5 are rare or absent in this region (Wisden et al, 1992). Brains were rapidly dissected into forebrain and cerebellum and the spinal cord was also removed. Each forebrain was homogenised in 4.0 ml of buffer (approximately 14 ml/g wet weight of tissue), each cerebellum was homogenised in 1.0 ml of buffer (approximately 14 ml/g wet weight of tissue) and each spinal cord in 1.0 ml of buffer (approximately […] wet weight of tissue). Volumes ([…]) of homogenate were filtered rapidly through GF/B filters, washed with 2×5.0 ml volumes of ice-cold buffer and the residual radioactivity was counted by liquid scintillation spectroscopy.
# (§4) Mice were injected intraperitoneally with FG 8094, 10 mg/kg or 1 mg/kg, 30 minutes prior to sacrifice and [^3H]Ro 15-1788 (0.1 mCi/g). Brain regions were dissected, homogenised and filtered as described in methods.
# [3] = tested on: benzodiazepine binding site of α1-containing GABA receptors; assay: In vivo [3H]Ro 15-1788 binding, cerebellum; conditions: male, Swiss-Webster, mouse, cerebellum, intraperitoneal, 1 mg/kg, probe [3H]Ro 15-1788
# Experimental: as §3, §4
# Spinal cord (α2/3) = assay: In vivo [3H]Ro 15-1788 binding, spinal cord; conditions: for percentage inhibition of in vivo [3H]Ro 15-1788 binding, spinal cord: 30 min, mean±SEM, relative to vehicle
# Experimental: as §3, §4
# [4] = tested on: benzodiazepine binding site of α2/3-containing GABA receptors; assay: In vivo [3H]Ro 15-1788 binding, spinal cord; conditions: male, Swiss-Webster, mouse, in vivo, 1 mg/kg
# Experimental: as §3, §4
# rats = assay: Watermaze experiment with SC pellet of FG 8094
# α2β3γ2 = target: T5, α2β3γ2 (Homo sapiens, UniProt P18507+P47869); assay: Radioligand binding, membranes of stably transfected cells
# T5 construct: expressed in transfected cells
# T5 sequence (P47869 29-451): as the sequence (P47869 29-451) above
# T5 sequence (P28472 26-473 partner): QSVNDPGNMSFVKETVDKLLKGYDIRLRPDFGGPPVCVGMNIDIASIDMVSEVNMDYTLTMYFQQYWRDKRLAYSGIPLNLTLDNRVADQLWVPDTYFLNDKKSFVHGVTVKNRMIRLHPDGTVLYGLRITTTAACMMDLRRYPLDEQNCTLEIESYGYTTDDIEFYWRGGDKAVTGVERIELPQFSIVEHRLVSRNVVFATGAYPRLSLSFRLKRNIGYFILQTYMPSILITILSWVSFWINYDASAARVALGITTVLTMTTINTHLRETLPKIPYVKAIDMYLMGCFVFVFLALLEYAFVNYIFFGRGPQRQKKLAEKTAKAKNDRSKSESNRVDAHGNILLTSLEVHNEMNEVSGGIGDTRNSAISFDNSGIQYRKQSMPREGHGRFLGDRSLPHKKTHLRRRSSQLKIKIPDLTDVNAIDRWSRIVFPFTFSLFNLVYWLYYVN
# T5 sequence (P18507 40-467 isoform P18507-1 limits assumed): as the sequence (P18507 40-467 isoform P18507-1 limits assumed) above
# male Sprague Dawley rats = assay: Pro-convulsant testing, acute treatment, PTZ infusion; format: in vivo, rat; conditions: 0.5-4.0 mg/kg IP 30 min prior to PTZ infusion
# Experimental: Sixty naive male Sprague Dawley rats (225-265 g) housed in groups of four with food and water freely available, served as subjects. The rats were assigned to one of six groups and given: Vehicle or 0.5, 1.0, 2.0, 4.0 mg/kg of […] or 10.0 mg/kg of the non-selective receptor inverse agonist, CGS 8216, a known pro-convulsant agent. Vehicle, FG 8094 or CGS 8216 was administered IP 30 min prior to an infusion of the convulsant, pentylenetetrazole (PTZ, 40 mg/ml). PTZ was infused into the tail vein of the rat at the rate of 1.0 ml/min. The latency to clonic and tonic seizure were recorded and the threshold to each was calculated using the equation: Threshold dose=infusion rate (ml/s)×PTZ (mg/ml)×(1000/rats weight)×latency(s).
# [5] = tested on: non-α5 subtype containing GABA-A receptors; assay: In vivo [3H]Ro 15-1788 binding after pellet implantation; design: species or system rat; conditions: SC pellet
# α1β3γ2 = α1β3γ2 (Homo sapiens, UniProt P14867+P18507); assay: biochemical
# Experimental: Radioligand binding studies were carried out using membranes prepared from cells stably transfected with the following subunit combinations:—α1β3γ2, α2β3γ2, α3β3γ2, α5β3γ2, α6β3γ2. Incubations were carried out using 20-100 mg of membrane protein in a total volume of 0.5 ml in 10 mM Tris-HCl, 1 mM EDTA pH 7.4 for one hour at room temperature prior to termination through Whatman GF/C filters followed by 3×3 ml washes with 5 mM Tris-HCl pH 7.5 and scintillation counting. […] Ki values were calculated according to the Cheng-Prussof equation.
# Ki values were calculated according to the Cheng-Prussof equation. Data shown are mean±SEM values for 3-6 determinations.
# [6] = ip, read-out: percentage inhibition of in vivo [3H]Ro 15-1788 binding, cerebellum
smiles,measurement,setting,value
"CCOC(=O)c1ncn2c1[C@@H]1CCCN1C(=O)c1cc(OC)ccc1-2 [FG 8094, 9H-imidazo[1,5-a]pyrrolo[2,1-C][1,4]benzodiazepine-1-carboxylic acid, 11, 12, 13, 13a-tetrahydro-7-methoxy-9-oxo-, ethyl ester, (S)-(9CI)]",occupancy of α5 subtype containing GABA-A receptors in the brain,[1],approximately 85%
same,"displacement of [3H]Ro 15-1788 binding, whole brain","GABAA receptors; 10.0 mg/kg intraperitoneally, p<0.05",significantly displaced
same,"displacement of specific [3H]Ro 15-1788 binding, whole brain",GABAA receptors; intraperitoneally at doses of up to 3.0 mg/kg,did not significantly displace
same,blood levels,[2],greater than 100 ng/ml
same,duration of blood levels greater than 100 ng/ml,[2],more than 6 hours
same,"percentage inhibition of in vivo [3H]Ro 15-1788 binding, forebrain",Forebrain (all α); 1 mg/kg ip,8.3 ± 3.2
same,"percentage inhibition of in vivo [3H]Ro 15-1788 binding, forebrain",Forebrain (all α); 10 mg/kg ip,53.3 ± 4.2
same,"functional effect on GABA EC20 current, α2β2γ2",α2β2γ2,partial receptor inverse agonist
same,"functional effect on GABA EC20 current, α3β2γ2",α3β2γ2,partial receptor inverse agonist
same,"functional effect on GABA EC20 current, α5β2γ2",α5β2γ2,full receptor inverse agonist
same,"functional effect on GABA EC20 current, α1β2γ2",α1β2γ2,no intrinsic effect
same,inhibition at 1 mg/kg,Cerebellum (α1); [6],13.8 ± 4.9%
same,inhibition at 10 mg/kg,Cerebellum (α1); [6],55 ± 6.9%
same,receptor occupancy at 1 mg/kg,Cerebellum (α1); read-out: occupancy of α1 receptors,< 15%
same,concentration at 30 min,[3],7.8 nM
same,occupancy of α2/3 receptors,Spinal cord (α2/3); 1.0 mg/kg,less than 35%
same,"percentage inhibition of in vivo [3H]Ro 15-1788 binding, spinal cord",Spinal cord (α2/3); 1 mg/kg ip,33.8 ± 7.4
same,"percentage inhibition of in vivo [3H]Ro 15-1788 binding, spinal cord",Spinal cord (α2/3); 10 mg/kg ip,74.2 ± 3.8
same,concentration at 30 min,[4],13.2 nM
same,convulsions or sedation,rats; SC pellet,did not cause convulsions or sedation
same,watermaze performance,"rats; pellet implanted SC 2 hrs before, training on one day",improved performance
same,Ki,α2β3γ2,27.4 ± 2.5 nM
same,pro-convulsant effects,male Sprague Dawley rats,devoid of pro-convulsant effects
same,occupancy of non-α5 subtype containing GABA-A receptors,[5],did not significantly occupy
same,Ki,α1β3γ2,48.5 ± 6 nM
